The record followed here is paper PMC4459817, “Vasculotide reduces endothelial permeability and tumor cell extravasation in the absence of binding to or agonistic activation of Tie2” (EMBO Molecular Medicine, 2015).

The experiment relates to mouse Tie2-Fc (extracellular domain of Tie2). The experiment can be described thus: pull-down assay, mouse Tie2-Fc. Type of experiment: binding. Particulars: mouse Tie2-Fc on protein A sepharose; rhAng1 20 ng or VT 100 ng, pH 7.4, 4°C; Fig9A,B. The source says:
To better understand the difficulties we had in observing Tie2 activation by VT, we sought to characterize the binding affinity and kinetics of VT to Tie2. Purified human or mouse Tie2-Fc (i.e., Fc-conjugated extracellular domains of Tie2) were first coupled to protein A sepharose beads for pull-down experiments (Fig9A and B) or immobilized on a Biacore CM5 sensor chip for surface plasmon resonance (SPR) experiments (Fig9C and Supplementary Fig S3).
Figure 9 Binding of Vasculotide vs. Ang1 variants to the extracellular domain of Tie2 • A–B Pull-down assay. Input ligands—rhAng1 (A) and VT (B)—were incubated with either protein A sepharose beads only, bead-conjugated mouse Tie2-Fc (mTie2), or bead-conjugated human Tie2-Fc (hTie2). […] The ‘unbound’ fraction is 7% of residual/free ligands remaining in the supernatant. • C Quantitative kinetics analysis by SPR. All analytes were run at increasing concentrations of 0.625, 1.25, 2.5, 5, and 10 nM, at 37°C and pH 7.4. […] Source data are available online for this figure. […]
Semi-quantitative densitometry analysis of immunoblots was performed using the ChemiGenius2 bioimaging system and GeneSnap/GeneTools software (Syngene). […]

In the case of “CHHHRHSF [Vasculotide, 4-armed maleimide-functionalized polyethylene glycol (PEG) backbone to link together four cysteine-capped T7 peptides, that is, CHHHRHSF]”, the “pull-down by Tie2-Fc” value is on record as “did not pull down any appreciable levels”.

B1: recombinant human Ang1 (rhAng1) (ligand, UniProt Q15389 16-498, looked up)
chain: HIGCSNQRRSPENSGRRYNRIQHGQCAYTFILPEHDGNCRESTTDQYNTNALQRDAPHVEPDFSSQKLQHLEHVMENYTQWLQKLENYIVENMKSEMAQIQQNAVQNHTATMLEIGTSLLSQTAEQTRKLTDVETQVLNQTSRLEIQLLENSLSTYKLEKQLLQQTNEILKIHEKNSLLEHKILEMEGKHKEELDTLKEEKENLQGLVTRQTYIIQELEKQLNRATTNNSVLQKQQLELMDTVHNLVNLCTKEGVLLKGGKREEEKPFRDCADVYQAGFNKSGIYTIYINNMPEPKKVFCNMDVNGGGWTVIQHREDGSLDFQRGWKEYKMGFGNPSGEYWLGNEFIFAITSQRQYMLRIELMDWEGNRAYSQYDRFHIGNEKQNYRLYLKGHTGTAGKQSSLILHGADFSTKDADNDNCMCKCALMLTGGWWFDACGPSNLNGMFYTAGQNHGKLNGIKWHYFKGPSYSLRSTTMMIRPLDF
notes: angiopoietin-1, human, recombinant; also called angiopoietin-1; source: bought: R&D Systems (named for the Boyden chamber experiments)
Turning to B1, the “pull-down by Tie2-Fc” value was “effectively pulled down the majority”.
